Measurements reported in patent publication US9034899B2, “Aryl, heteroaryl, and heterocycle substituted tetrahydroisoquinolines and use thereof” (Albany Molecular Research, Inc., priority 2009, dated 2015).
pIC50: −log10 of the molar value.

What was measured:
hNET = hNET (Homo sapiens (Human), UniProt P23975); assay: NET radioligand binding assay ([3H]nisoxetine, HEK-293 membranes); settings: (+)-enantiomers
Experimental: (§1) Recombinant HEK-293 cells expressing either the hSERT, hDAT, or hNET proteins were harvested from T-175 flasks as follows. The medium was removed from the flasks and the cells rinsed with HBSS without Ca and without Mg. The cells were then incubated for 5-10 minutes in 10 mM Tris-Cl, pH 7.5, 5 mM EDTA before the cells were lifted with a combination of pipetting and scraping, as needed. The cell suspension was collected into centrifuge bottles and homogenized for 30 seconds with a Polytron homogenizer. The suspension was centrifuged for 30 minutes at 32,000×g, 4° C. The supernatant was decanted and the pellet resuspended and homogenized in 50 mM Tris-Cl, pH 7.5, 1 mM EDTA for 10 seconds. The suspension was then centrifuged again for 30 minutes at 32,000×g, 4° C. The supernatant was decanted and the pellet resuspended in 50 mM Tris-Cl, pH 7.5, 1 mM EDTA and briefly homogenized. A Bradford assay (Bio-rad) was performed and the membrane preparation diluted to 2 mg/ml with 50 mM Tris-Cl, pH 7.5, 1 mM EDTA. Aliquots were prepared, and then frozen and stored at −80° C.
(§2) Compounds were dissolved in 100% DMSO at a concentration 100 times the desired highest assay concentration, serially diluted 1:3 in 100% DMSO, and 1.0 μl/well of each solution was dispensed to a Nunc polypropylene, round bottom, 384-well plate. 100% inhibition is defined with 1.0 μl/well of 10 mM desipramine dissolved in DMSO. 50 μl/well of a 2× membrane preparation (0.4 mg/ml in 50 mM Tris-Cl, pH 7.5, 120 mM NaCl, 5 mM KCl) and 50 μl/well of a 2× radioligand solution (4 nM [^3H]nisoxetine in 50 mM Tris-Cl, pH 7.5, 120 mM NaCl, 5 mM KCl) were added to the well and the reaction incubated for 1 hour at room temperature. The contents of the assay plate were then transferred to a Millipore MultiscreenHTS GF/B filter plate which was pretreated with 0.5% PEI for at least one hour. The plate was vacuum filtered and washed with 7 washes of 100 μl/well 50 mM Tris-Cl, pH 7.5, 120 mM NaCl, 5 mM KCl chilled to 4° C. The filtration and washing were completed in less than 90 seconds. The plates were air-dried overnight, 12 μl/well of MicroScint scintillation fluid added, and the plates counted in a Trilux.
(§3) The raw data was normalized to percent inhibition using control wells defining 0% (DMSO only) and 100% (selective inhibitor) inhibition which were run on each plate. Each plate was run in triplicate, and the concentration response curve thus generated was fit using the four-parameter dose response equation, Y=Bottom+(Top-Bottom)/(1+10^((LogIC50−X)*HillSlope)) in order to determine the IC50 value for each compound. The radioligand concentration chosen for each assay corresponds to the Kd concentration determined through saturation binding analysis for each assay.

hDAT = hDAT (Homo sapiens (Human), UniProt Q01959); assay: DAT radioligand binding assay ([125I]RTI-55, HEK-293 membranes); settings: (+)-enantiomers; read-out: DAT IC50
Experimental: as §1
Compounds were dissolved in 100% DMSO at a concentration 100 times the desired highest assay concentration, serially diluted 1:3 in 100% DMSO, and 0.4 μl/well of each solution was dispensed to a Nunc polypropylene, round bottom, 384-well plate. 100% inhibition is defined with 0.4 μl/well of 1 mM GBR-12935 dissolved in DMSO. 20 ul/well of a 2× membrane preparation (12.5 μg/ml in 30 mM sodium phosphate buffer, pH 7.9 at 4° C.) and 20 μl/well of a 2× radioligand solution ([…] [^125I]RTI-55 in 30 mM sodium phosphate buffer, pH 7.9 at 4° C.) were added to the well and the reaction incubated for 1 hour at room temperature. The contents of the assay plate were then transferred to a Millipore MultiscreenHTS GF/B filter plate which was pretreated with 0.5% PEI for at least one hour. The plate was vacuum-filtered and washed with 7 washes of 100 μl/well 50 mM Tris-Cl, pH 7.5, 120 mM NaCl, 5 mM KCl chilled to 4° C. The filtration and washing were completed in less than 90 seconds. The plates were air-dried overnight, 12 μl/well of MicroScint scintillation fluid added, and the plates counted in a Trilux.
as §3

hSERT = hSERT (Homo sapiens (Human), UniProt P31645); assay: SERT radioligand binding assay ([125I]RTI-55, HEK-293 membranes); settings: (+)-enantiomers; read-out: SERT IC50
Experimental: as §1, with “The” for “Recombinant HEK-293 cells expressing either the hSERT, hDAT, or hNET proteins were harvested from T-175 flasks as follows. The”
as §2, with “0.4” for “1.0”, “100% inhibition is defined with 1.0 μl/well of 10 mM desipramine dissolved in DMSO. 50 μl/well of a 2× membrane preparation (0.4 mg/ml in 50 mM Tris-Cl, pH 7.5, 120 mM NaCl, 5 mM KCl) and 50 μl/well of a 2× radioligand solution (4 nM [^3H]nisoxetine in 50 mM Tris-Cl, pH 7.5, 120 mM NaCl, 5 mM KCl) were added to the well and the reaction incubated for 1 hour at room temperature.” left out
as §3, with “Each” for “The raw data was normalized to percent inhibition using control wells defining 0% (DMSO only) and 100% (selective inhibitor) inhibition which were run on each plate. Each”

SERT = assay: Occupancy assay, ex vivo binding in brain tissue, SERT; settings: dose 1 mg/kg, time point 3 h
Source text: (§4) The general procedure for brain tissue collection and transporter occupancy assessment is briefly described as follows. Mice were sacrificed by asphyxiation in CO2, rats by decapitation and dogs by IV injection of euthanasia solution. For mice and rats, after the brains were removed from the skull, the forebrain tissue (removal of the brainstem and cerebellum) was used for SERT, NET, and DAT occupancy assessment. In dogs, the striatum was dissected for DAT occupancy and the remaining forebrain tissue (without the striatum, brainstem, and cerebellum) was used for SERT and NET occupancy assessment. The brain tissues were frozen in chilled isopentane and stored at −80° C. until homogenization.
(§5) The brain tissues were thawed and then homogenized using a polytron homogenizer (Kinematica). Sample aliquots were frozen immediately and stored at −80° C. Protein content was measured for each sample using a Coomassie protein assay kit (Pierce).
(§6) On the day of ex vivo binding for occupancy assessment, frozen sample aliquots were thawed and needle homogenized, and 100 μg of the tissue was incubated for SERT, NET, and DAT binding under assay conditions summarized in Table 2. After incubation, the reactions were terminated by the addition of ice-cold assay buffer and rapid filtration through a Brandel Cell Harvester using FPXLR-196 filters. The filters were washed twice with ice-cold incubation buffer, punched into a clear plate prior to the addition of 200 ul scintillation fluid per well. Radioligand was measured using a Wallac Microbeta liquid scintillation counter.
The specific binding was calculated by subtracting the value of the non-specific binding from that of the total binding in each sample. The percent occupancy was calculated as (1−specific binding in drug treated/specific binding in vehicle treated)×100%. For estimation of in vivo occupancy EC50 (total plasma concentration of compound producing 50% occupancy), plots of occupancy values versus plasma concentrations were fitted to a one-site binding model using nonlinear regression according to the following equation: % Occupancy=Emax*C/(EC50+C) where Emax is the maximal specific binding, C is the drug concentration, and EC50 is the total plasma concentration required for 50% binding site occupancy. Nonlinear regression was performed using GraphPad Prism version 3.00 (GraphPad Software, San Diego, Calif.).

NET = assay: Occupancy assay, ex vivo binding in brain tissue, NET; settings: dose 1 mg/kg, time point 3 h
Source text: as §4, §5
as §6, with “After incubation, the reactions were terminated by the addition of ice-cold assay buffer and rapid filtration through a Brandel Cell Harvester using FPXLR-196 filters.” left out
(§7) The specific binding was calculated by subtracting the value of the non-specific binding from that of the total binding in each sample. The percent occupancy was calculated as (1−specific binding in drug treated/specific binding in vehicle treated)×100%. […] Nonlinear regression was performed using GraphPad Prism version 3.00 (GraphPad Software, San Diego, Calif.).

Male Swiss Webster mice = assay: Mouse tail suspension assay; assay type: in vivo; settings: mouse tail suspension study, acute administration
Experimental: Male Swiss Webster mice were housed 3-4 per cage in rooms maintained at a constant temperature (21-23° C.) and humidity (50±10%) on a 12-hour light/dark cycle. Animals had ad libitum access to water and food throughout studies. On the day of testing, they were brought into the testing room and allowed to acclimate for one hour.
To begin testing, the tail was attached to a piece of tape which ias then attached to a hook on the ceiling of a sound-attenuated chamber. Immobility was automatically recorded using the Med Associates software. Compounds were administered acutely at a fixed pretreatment interval before session.

DAT = assay: Occupancy assay, ex vivo binding in brain tissue, DAT; settings: dose 1 mg/kg, time point 3 h
Source text: as §4, §5
as §6, with “After incubation, the reactions were terminated by the addition of ice-cold assay buffer and rapid filtration through a Brandel Cell Harvester using FPXLR-196 filters.” left out
as §7

hNET, sequence (P23975 whole entry): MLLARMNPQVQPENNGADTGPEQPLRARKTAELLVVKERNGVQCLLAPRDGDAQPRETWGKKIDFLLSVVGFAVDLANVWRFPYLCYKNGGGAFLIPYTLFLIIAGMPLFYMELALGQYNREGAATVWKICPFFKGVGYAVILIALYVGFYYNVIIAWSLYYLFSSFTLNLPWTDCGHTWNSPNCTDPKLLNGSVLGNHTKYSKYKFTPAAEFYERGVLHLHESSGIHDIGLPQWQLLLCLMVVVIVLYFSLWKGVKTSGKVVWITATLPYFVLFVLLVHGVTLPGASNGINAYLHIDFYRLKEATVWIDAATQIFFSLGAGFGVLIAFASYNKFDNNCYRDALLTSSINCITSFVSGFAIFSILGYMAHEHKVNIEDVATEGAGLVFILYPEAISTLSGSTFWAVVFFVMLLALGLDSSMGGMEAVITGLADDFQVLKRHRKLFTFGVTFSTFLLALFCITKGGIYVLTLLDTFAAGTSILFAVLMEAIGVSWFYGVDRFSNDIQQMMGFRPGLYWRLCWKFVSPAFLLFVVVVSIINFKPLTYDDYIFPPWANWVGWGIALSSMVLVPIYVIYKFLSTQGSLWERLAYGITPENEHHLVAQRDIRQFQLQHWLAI
hSERT, sequence (P31645 whole entry): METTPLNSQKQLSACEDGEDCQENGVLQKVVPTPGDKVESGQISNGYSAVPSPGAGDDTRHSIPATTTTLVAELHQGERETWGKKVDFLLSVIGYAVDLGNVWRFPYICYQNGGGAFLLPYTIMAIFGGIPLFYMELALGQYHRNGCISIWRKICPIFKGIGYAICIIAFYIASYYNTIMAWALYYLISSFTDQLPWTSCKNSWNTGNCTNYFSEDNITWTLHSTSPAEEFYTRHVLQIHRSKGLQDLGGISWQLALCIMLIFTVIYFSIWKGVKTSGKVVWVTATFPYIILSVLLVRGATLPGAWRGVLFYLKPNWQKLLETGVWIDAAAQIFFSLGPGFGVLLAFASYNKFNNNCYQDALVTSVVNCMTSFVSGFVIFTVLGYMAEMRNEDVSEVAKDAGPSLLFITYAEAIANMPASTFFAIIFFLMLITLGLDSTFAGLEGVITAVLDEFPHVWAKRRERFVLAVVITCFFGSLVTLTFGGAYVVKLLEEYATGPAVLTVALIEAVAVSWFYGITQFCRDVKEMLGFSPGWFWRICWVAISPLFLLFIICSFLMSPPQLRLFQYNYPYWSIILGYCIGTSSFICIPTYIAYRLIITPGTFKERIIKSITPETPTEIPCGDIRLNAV
hDAT, sequence (Q01959 whole entry): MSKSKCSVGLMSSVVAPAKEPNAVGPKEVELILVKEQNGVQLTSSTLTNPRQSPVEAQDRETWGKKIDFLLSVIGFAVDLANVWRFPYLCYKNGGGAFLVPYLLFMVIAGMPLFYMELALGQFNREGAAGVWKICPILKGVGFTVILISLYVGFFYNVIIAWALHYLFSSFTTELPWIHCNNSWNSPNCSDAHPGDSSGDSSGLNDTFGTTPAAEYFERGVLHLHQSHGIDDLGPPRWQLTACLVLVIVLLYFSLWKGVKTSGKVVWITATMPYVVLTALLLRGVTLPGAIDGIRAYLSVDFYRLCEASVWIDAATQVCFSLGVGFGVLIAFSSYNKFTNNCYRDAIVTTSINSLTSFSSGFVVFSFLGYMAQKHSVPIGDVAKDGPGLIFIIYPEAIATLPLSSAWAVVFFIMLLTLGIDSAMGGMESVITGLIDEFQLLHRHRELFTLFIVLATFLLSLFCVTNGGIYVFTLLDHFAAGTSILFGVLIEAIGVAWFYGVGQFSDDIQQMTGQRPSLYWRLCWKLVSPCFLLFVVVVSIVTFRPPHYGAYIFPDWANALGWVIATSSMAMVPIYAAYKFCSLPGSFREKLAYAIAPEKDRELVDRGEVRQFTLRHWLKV

O=c1ccc(-c2cc3c(cc2F)C(c2ccc(Cl)c(Cl)c2)CNC3)n[nH]1 (stereo not shown) [Example 22, 6-(4-(3,4-dichlorophenyl)-6-fluoro-1,2,3,4-tetrahydroisoquinolin-7-yl)pyridazin-3(2H)-one]
pIC50 (hNET): 7.20 | pIC50 (hDAT): 7.43 | pIC50 (hSERT): 7.41

CS(=O)(=O)c1cccc(-c2cc3c(cc2F)C(c2ccc(Cl)c(Cl)c2)CNC3)c1 (stereo not shown) [Example 23, 4-(3,4-dichlorophenyl)-6-fluoro-7-(3-(methylsulfonyl)phenyl)-1,2,3,4-tetrahydroisoquinoline]
pIC50 (hNET): 6.55 | pIC50 (hDAT): 7.00 | pIC50 (hSERT): 7.08

NC(=O)c1ccc(-c2cc3c(cc2F)C(c2ccc(Cl)c(Cl)c2)CNC3)cc1 (stereo not shown) [Example 26, 4-(4-(3,4-dichlorophenyl)-6-fluoro-1,2,3,4-tetrahydroisoquinolin-7-yl)benzamide]
pIC50 (hNET): 7.63 | pIC50 (hDAT): 8.24 | pIC50 (hSERT): 7.61

NC(=O)c1ccc(-c2cc3c(cc2F)C(c2ccc(Cl)cc2)CNC3)cc1 (stereo not shown) [Example 30, 4-(4-(4-chlorophenyl)-6-fluoro-1,2,3,4-tetrahydroisoquinolin-7-yl)benzamide]
pIC50 (hNET): 6.67 | pIC50 (hDAT): 7.61 | pIC50 (hSERT): 7.00

Clc1ccc(C2CNCc3cc(-c4ccc5ncnn5c4)ccc32)cc1Cl (stereo not shown) [Example 36, 7-([1,2,4]triazolo[1,5-a]pyridin-6-yl)-4-(3,4-dichlorophenyl)-1,2,3,4-tetrahydroisoquinoline]
SERT Occupancy % (SERT): 75% | NET Occupancy % (NET): 11% | minimum effective dose (Male Swiss Webster mice): 10 mg/kg | DAT Occupancy % (DAT): 26%
